The source of these data is PubChem BioAssay AID248 (DTP/NCI, 2004).

Structures are written as SMILES. Values joined by “and” are separate entries in the source; they are usually repeats but may differ in a detail not shown here. Equal entries are not always repeated. Toxic doses and inconclusive results are not listed.

For this test, the system named is L1210 leukemia ip in BDF1 mice, survival T/C. The experiment in a line: NCI In Vivo Anticancer Drug Screen. Data for tumor model L1210 Leukemia (intraperitoneal) in B6D2F1 (BDF1) mice. The following applies: endpoint: mean survival time, higher = longer survival. In a few lines: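 Survival endpoint. Drug-treated group vs vehicle group, expressed as T divided by C. Tumor passaged by transplantation.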

Where [1] appears, read: dose: 100.0 mg/kg/injection, schedule: Q01DX009 (ip), vehicle: Klucel (hydroxypropylcellulose) (HPC).
Where [2] appears, read: dose: 200.0 mg/kg/injection, schedule: Q01DX009 (ip), vehicle: Klucel (hydroxypropylcellulose) (HPC).
[3] abbreviates: dose: 400.0 mg/kg/injection, schedule: Q01DX009 (ip), vehicle: Klucel (hydroxypropylcellulose) (HPC).
The mark [4] stands for this setting: dose: 100.0 mg/kg/injection, schedule: Q01DX001 (ip), vehicle: carboxymethylcellulose (CMC).
Where [5] appears, read: dose: 100.0 mg/kg/injection, schedule: Q01DX001 (ip), vehicle: saline.
Setting [6] is: dose: 200.0 mg/kg/injection, schedule: Q01DX001 (ip), vehicle: saline.
The mark [7] stands for this setting: dose: 400.0 mg/kg/injection, schedule: Q01DX001 (ip), vehicle: saline.
The mark [8] stands for this setting: dose: 100.0 mg/kg/injection, schedule: Q04DX003 (ip), vehicle: saline.
Setting [9] is: dose: 200.0 mg/kg/injection, schedule: Q04DX003 (ip), vehicle: saline.
Setting [10] is: dose: 400.0 mg/kg/injection, schedule: Q04DX003 (ip), vehicle: saline.

Take `O=NN(CCCl)C(=O)N[C@H]1CCCC[C@H]1Cl`: the T/C reads like this: (dose: 12.0 mg/kg/injection, schedule: Q01DX001 (ip), vehicle: carboxymethylcellulose (CMC)) 108 % of control; (dose: 16.0 mg/kg/injection, schedule: Q01DX001 (ip), vehicle: carboxymethylcellulose (CMC)) 175 % of control; (dose: 31.0 mg/kg/injection, schedule: Q01DX001 (ip), vehicle: carboxymethylcellulose (CMC)) 180 % of control; (dose: 36.0 mg/kg/injection, schedule: Q01DX001 (ip), vehicle: carboxymethylcellulose (CMC)) 177 % of control; (dose: 40.0 mg/kg/injection, schedule: Q01DX001 (ip), vehicle: carboxymethylcellulose (CMC)) 168 % of control; (dose: 54.0 mg/kg/injection, schedule: Q01DX001 (ip), vehicle: carboxymethylcellulose (CMC)) 289 % of control. Also, the T/C (dose: 62.0 mg/kg/injection, schedule: Q01DX001 (ip), vehicle: carboxymethylcellulose (CMC)) was 218 % of control and 304 % of control; the T/C (dose: 72.0 mg/kg/injection, schedule: Q01DX001 (ip), vehicle: carboxymethylcellulose (CMC)) was 289 % of control; the T/C (dose: 90.0 mg/kg/injection, schedule: Q01DX001 (ip), vehicle: carboxymethylcellulose (CMC)) is 295 % of control; the T/C (dose: 93.0 mg/kg/injection, schedule: Q01DX001 (ip), vehicle: carboxymethylcellulose (CMC)) is 177 % of control; the T/C (dose: 108.0 mg/kg/injection, schedule: Q01DX001 (ip), vehicle: carboxymethylcellulose (CMC)) was 307 % of control; the T/C (dose: 125.0 mg/kg/injection, schedule: Q01DX001 (ip), vehicle: carboxymethylcellulose (CMC)) is 175 % of control. The T/C was 306 % of control (dose: 135.0 mg/kg/injection, schedule: Q01DX001 (ip), vehicle: carboxymethylcellulose (CMC)); 107 % of control (dose: 187.0 mg/kg/injection, schedule: Q01DX001 (ip), vehicle: carboxymethylcellulose (CMC)); 242 % of control (dose: 207.0 mg/kg/injection, schedule: Q01DX001 (ip), vehicle: carboxymethylcellulose (CMC)).
As for `Cc1cc(=O)n2c3c(cc(C#N)cc13)OC2`, the T/C was 90 % of control under setting [1]; 96 % of control (dose: 100.0 mg/kg/injection, schedule: Q04DX002 (ip), vehicle: Klucel (hydroxypropylcellulose) (HPC)); 98 % of control under setting [2]; 95 % of control under setting [3]; 89 % of control (dose: 400.0 mg/kg/injection, schedule: Q04DX002 (ip), vehicle: Klucel (hydroxypropylcellulose) (HPC)).
In the case of `CNC(=O)Oc1ccc(C=Nc2cccc([N+](=O)[O-])c2)cc1`, the T/C was 101 % of control under setting [1], 95 % of control under setting [2] and 100 % of control under setting [3].
Turning to `CCC(C)(C)c1ccc(O)c(C(=O)O)c1`, the T/C by setting is: under setting [4], 90 % of control; (dose: 200.0 mg/kg/injection, schedule: Q01DX001 (ip), vehicle: carboxymethylcellulose (CMC)) 95 % of control.
Turning to `CC1(C)OC2/C(=N/O)C3COC(O3)C2O1` (centres undefined), the T/C by setting is: under setting [5], 101 % of control; under setting [6], 95 % of control; under setting [7], 106 % of control.
For `COc1cc(/C=N\N=C\c2ccc(OC(=O)c3cc(OC)c(OC)c(OC)c3)c(OC)c2)ccc1OC(=O)c1cc(OC)c(OC)c(OC)c1`, the T/C under setting [1] was 95 % of control, the T/C under setting [2] is 95 % of control and the T/C under setting [3] was 102 % of control.
Turning to `O=C(Nc1nccs1)Nc1ccc(Cl)cc1Cl`, the T/C by setting is: (dose: 50.0 mg/kg/injection, schedule: Q01DX009 (ip), vehicle: saline with Tween-80) 91 % of control; (dose: 100.0 mg/kg/injection, schedule: Q01DX009 (ip), vehicle: saline with Tween-80) 98 % of control; (dose: 200.0 mg/kg/injection, schedule: Q01DX009 (ip), vehicle: saline with Tween-80) 109 % of control.
With `CN(C)CC1C2C=CC(C2)C1CN(C)C` (centres undefined), the T/C is 96 % of control under setting [8] and 91 % of control under setting [9].
Take `N#CCC(=O)[O][Sn]([c]1ccccc1)([c]1ccccc1)[c]1ccccc1`: the T/C was 99 % of control (dose: 1.56 mg/kg/injection, schedule: Q01DX009 (ip), vehicle: saline with Tween-80); 92 % of control (dose: 3.12 mg/kg/injection, schedule: Q01DX009 (ip), vehicle: saline with Tween-80); 89 % of control (dose: 6.25 mg/kg/injection, schedule: Q01DX009 (ip), vehicle: saline with Tween-80).
For the molecule `O=C(O)C1CCC(C(=O)O)CC1` (centres undefined), the T/C reads like this: (dose: 50.0 mg/kg/injection, schedule: Q01DX001 (ip), vehicle: carboxymethylcellulose (CMC)) 101 % of control; under setting [4], 88 % of control; (dose: 400.0 mg/kg/injection, schedule: Q01DX001 (ip), vehicle: carboxymethylcellulose (CMC)) 98 % of control.
As for `COC(=O)/C(C)=C\C=C(/C)C(=O)OC`, the T/C was 100 % of control under setting [8], 116 % of control under setting [9] and 97 % of control under setting [10].
Consider `O=P1(N(CCF)CCF)NCCCO1` (centres undefined), for which the T/C (dose: 2.5 mg/kg/injection, schedule: Q01DX Z (ip), vehicle: saline) is 96 % of control; the T/C (dose: 5.0 mg/kg/injection, schedule: Q01DX Z (ip), vehicle: saline) is 91 % of control; the T/C (dose: 10.0 mg/kg/injection, schedule: Q01DX Z (ip), vehicle: other) is 93 % of control; the T/C (dose: 10.0 mg/kg/injection, schedule: Q01DX Z (ip), vehicle: saline) was 115 % of control; the T/C (dose: 30.0 mg/kg/injection, schedule: Q01DX Z (ip), vehicle: other) was 106 % of control.
As for `CC1(C)N=C(N)N=C(N)N1c1cccc(C(=O)CCl)c1`, the T/C was 95 % of control (dose: 25.0 mg/kg/injection, schedule: Q01DX001 (ip), vehicle: saline with Tween-80); 103 % of control (dose: 50.0 mg/kg/injection, schedule: Q01DX001 (ip), vehicle: saline with Tween-80); 101 % of control (dose: 100.0 mg/kg/injection, schedule: Q01DX001 (ip), vehicle: saline with Tween-80).
`CCCCNC(C)(C)C(SS)c1ccc(Cl)cc1` (centres undefined): the T/C is 94 % of control (dose: 50.0 mg/kg/injection, schedule: Q01DX009 (ip), vehicle: other) and 92 % of control (dose: 100.0 mg/kg/injection, schedule: Q01DX009 (ip), vehicle: other).
Regarding `CC(=O)CC(=O)NCCNCCNC(=O)CC(C)=O`, the T/C (dose: 100.0 mg/kg/injection, schedule: Q01DX009 (ip), vehicle: saline) was 88 % of control; the T/C under setting [8] is 91 % of control; the T/C (dose: 200.0 mg/kg/injection, schedule: Q01DX009 (ip), vehicle: saline) was 95 % of control; the T/C under setting [9] was 98 % of control; the T/C (dose: 400.0 mg/kg/injection, schedule: Q01DX009 (ip), vehicle: saline) was 97 % of control; the T/C under setting [10] was 100 % of control.
For the molecule `CCOC(=O)c1[nH]c(-c2ccccc2)cc1-c1ccccc1`, the T/C by setting is: (dose: 100.0 mg/kg/injection, schedule: Q04DX003 (ip), vehicle: Klucel (hydroxypropylcellulose) (HPC)) 118 % of control; (dose: 200.0 mg/kg/injection, schedule: Q04DX003 (ip), vehicle: Klucel (hydroxypropylcellulose) (HPC)) 108 % of control; (dose: 400.0 mg/kg/injection, schedule: Q04DX003 (ip), vehicle: Klucel (hydroxypropylcellulose) (HPC)) 108 % of control.
As to `CC[Si](Cl)(CC)c1ccccc1`, the T/C runs as follows: under setting [5], 93 % of control; (dose: 100.0 mg/kg/injection, schedule: Q01DX001 (sc), vehicle: olive oil, sesame oil, peanut oil) 107 % of control; under setting [6], 90 % of control; (dose: 200.0 mg/kg/injection, schedule: Q01DX001 (sc), vehicle: olive oil, sesame oil, peanut oil) 107 % of control; under setting [7], 195 % of control; (dose: 400.0 mg/kg/injection, schedule: Q01DX001 (sc), vehicle: olive oil, sesame oil, peanut oil) 102 % of control.
For the molecule `CCN(C(=O)Nc1cccc2ccccc12)c1ccccc1C`, the T/C reads like this: (dose: 100.0 mg/kg/injection, schedule: Q01DX009 (ip), vehicle: gum acacia) 100 % of control; (dose: 100.0 mg/kg/injection, schedule: Q04DX003 (ip), vehicle: gum acacia) 98 % of control; (dose: 200.0 mg/kg/injection, schedule: Q01DX009 (ip), vehicle: gum acacia) 96 % of control; (dose: 200.0 mg/kg/injection, schedule: Q04DX003 (ip), vehicle: gum acacia) 98 % of control; (dose: 400.0 mg/kg/injection, schedule: Q01DX009 (ip), vehicle: gum acacia) 86 % of control; (dose: 400.0 mg/kg/injection, schedule: Q04DX003 (ip), vehicle: gum acacia) 96 % of control.
As for `O=C(Nc1ccccc1F)N(CC(O)c1ccccc1)C1CCCCC1` (centres undefined), the T/C is 97 % of control under setting [1], 95 % of control under setting [2] and 94 % of control under setting [3].
